Laboratory results: patent US11752175B2, “Compositions and methods for glaucoma” (AUFBAU MEDICAL INNOVATIONS LIMITED, priority 2018, dated 2023)

Tested on: glaucoma-associated-EV-complex in POAG patient's aqueous humor
Assay: Treating POAG aqueous humor samples with bimatoprost, EDC fixation, negative staining and TEM imaging
Set-up: species or system human
Excerpt: Methods for treating POAG aqueous humor samples with bimatoprost, and fixation of fluid with EDC, negative staining and TEM imaging. We sought to determine the effect of bimatoprost on EVs in aqueous humor of patients with glaucoma. To do this, we diluted the POAG aqueous humor sample with tris buffered saline (1:10 dilution) and added 1:1 volume of diluted POAG sample with either tris buffered saline (control) or bimatoprost. Lumigan was obtained directly from the dispensing bottle and was NOT diluted. 10 ul of POAG sample was mixed with 10 ul of TBS or 10 ul POAG sample was mixed with 10 ul of undiluted Lumigan. The tubes were then incubated in a thermocycler PCR machine and were allowed to sit for 72 hours at 37° C. The samples were then diluted (1:10). Next, we fixed with EDC on an electron microscopy grid using the following protocol. For 1 mls of EDC/ETT solution in 0.1 M 1-Methylimidazole buffer (pH 8.0). • 1. EDC-HCl powder should be stored at −20° C. under argon. To avoid condensation of humidity, only open bottles after they reached room temperature, i.e. take the bottle out of freezer 1 h before weighing out sample. • 2. EDC/5-ETT solution should be made at most 1 h prior to use. • 3. Pipette 5.76 ml of 0.1 M 1-Methylimidazole buffer (pH 8.0) into a 15 ml tube, vortex vigorously. • 4. Carefully spoon out the 0.078 g of ETT found in the “G” group, onto a piece of paper. Carefully pour the 0.078 g into the tube. • 5. Using the pH paper and pipet to check to be pH 8.0 • 6. Use a weighing paper to measure out 0.12 g of EDC. Carefully pour into the tube. Vortex vigorously. • 7. Discard unused solution. • 8. Using the pH paper and pipet to check to be pH 8.0 Poly L-lysine grids, EDC fixation, Glut-fixation, UA stain. • 1. Use formvar coated grids. • 2. Place them facing formvar side down to poly-lysine drops and let them sit for 5-10 min. • 3. Then you will withdraw the Poly-L-lysine • 4. Fasten down a piece of parchment paper to a 100 mm dish with tape or weight. Place grid down on parchment paper. Mix EDC solution with EVs • 1. Mix 2.5 ul of (Cold) EVs with 5 ul of (Cold) EDC solution in 1.5 ml siliconized tube. • 2. In the cold room, apply 5 μl sample (Aqueous humor) to the grid and wait 15 minutes to dry and for the EVs to settle to the bottom of the grid. • 3. Place in a humidified chamber and incubate at […] for at least 3 hours. Secondary Fixation with Glut • 1. Remove EDC-EV solution from the sample using a pipette. • 2. Fix with Glut, add 2-5 ul of glut fix and wait for 5 min • 3. Remove Glut with Pipet or lens paper Rinse Glut and EDC • 1. Apply water bubble to grid for 5 min • 2. Remove water bubble with pipette • 3. Add 5 ul of uranyl acetate onto grid (1 drop, blotting after the drop) • 4. Let grid dry, and place in grid box • 5. Take off stain with pipette Samples were then imaged with TEM. Treating large EV complexes with Bimatoprost breaks up the EV-complex, when compared to controls. To determine if glaucoma-associated-EV-aggregates visualized using the EDC fixation method were indeed a potential mediator of POAG, we hypothesized that treating it with a known glaucoma medication would change the morphology of the glaucoma-associated-EV-aggregates. Therefore, we opted to use Bimatoprost (lumigan), which is a ocular hypotensive agent that lowers IOP in normal, ocular hypertensive, and glaucomatous eyes. […]

SMILES: CCNC(=O)CCC/C=C\C[C@@H]1[C@@H](/C=C/[C@@H](O)CCc2ccccc2)[C@H](O)C[C@@H]1O [bimatoprost]
- evidence of large extracellular matrix or glaucoma-associated-EV-aggregates in TEM photographs (POAG aqueous humor samples treated with bimatoprost (FIG. 11 c-d)): no evidence of large extracellular matrix nor glaucoma-associated-EV-aggregates
- number of glaucoma-associated-EV-complex, compared to POAG sample with placebo treatment (POAG patient's aqueous humor, first subject (FIG. 11), undiluted Lumigan 1:1 with 1:10 diluted sample, 37° C. for 72 hours, TEM): substantial reduction
- size of POAG-associated EV complexes, compared to untreated glaucoma samples (aqueous humor of a patient with POAG (FIG. 11), TEM): reduces the size
- size of POAG-associated EV complexes, compared to control-treated glaucoma samples (aqueous humor of second subject with glaucoma (FIG. 13), TEM): reduces the size
- number of glaucoma-associated-EV-complexes, compared to placebo (buffered saline) (second human subject with glaucoma (FIG. 12-13), 37° C. for 72 hours, TEM): substantial reduction
